Patent US5599663A, “Angiotensin IV and analogs as regulators of fibrinolysis” (Brighan & Women's Hospital, priority 1993, dated 1997)
Blank lines part the entries; values can stand above or below the compound they belong to.

Assays:
[1] = tested on: bovine aortic endothelial cells receptor for Ang II; test: Binding of ^125 I-Ang II to cultured bovine aortic endothelial cells
From the text: We first studied the role of angiotensin (Ang) II in the regulation of endothelial fibrinolysis, by determining if Ang II binds to the target cell, which in this case was bovine aortic endothelial cells. In these experiments, we used early passage bovine aortic endothelial cells (P2-4) grown to confluence in DMEM supplemented with penicillin, streptomycin, and 10% newborn calf serum.
To test whether the Ang II receptor on the bovine aortic endothelial cells is similar or identical to the classic AT1 receptor, we measured the potency of the antagonist saralasin for binding.

PAI-1 mRNA = PAI-1 mRNA induction in bovine aortic endothelial cells (Northern / slot blot); format: cell-based; conditions: for effect on Ang II stimulation of PAI-1 mRNA levels: antagonist 1 μM
Protocol: FIG. 7 is a Northern blot showing the induction of PAI-1 RNA after treatment of bovine aortic endothelial cells with angiotensin II.
FIG. 8 is a graph showing the dose response of PAI-1 RNA induction by Ang II.
FIG. 9 is a Northern blot showing the time course of induction of PAI-1 RNA after treatment of bovine aortic endothelial cells with 20 nM angiotensin II.
FIG. 10 is a graph showing the PAI-1 mRNA levels as a function of time, in bovine aortic endothelial cells treated with 20 nM angiotensin II.
(§1) The increases in PAI-1 activity and antigen observed thus far have been associated with an approximate 4-fold increase in PAI-1 message (FIGS. 7 and 8). The cells for these experiments were incubated for 8 hour in fresh serum-free media containing the indicated concentrations of Ang II. Total RNA was extracted and analyzed by Northern blotting.
Ang II is also associated with a time-dependent increase in PAI-1 mRNA that peaks 6-8 hrs after exposure to Ang II, as assessed by Northern blot analysis (FIG. 9). Confluent cultures of bovine aortic endothelial cells were incubated with 20 nM Ang II in serum-free DMEM. Total cytoplasmic RNA was extracted at the indicated times and analyzed by Northern blotting (FIG. 9). The results corresponding to the 3.3-kb PAI-1 mRNA species were quantified by transmission densitometry. To control for variability in gel loading, the blots were stripped and rehybridized with a cDNA probe for β-actin. Normalized data are plotted in the FIG. 10.

AT1 receptor = conditions: well established property of the AT1 receptor; cited from earlier work
PAI-1 [2] = test: Plasma PAI-1 during graded infusions in rabbits; format: in vivo, New Zealand White rabbits; conditions: for effect on plasma PAI-1 levels: graded infusions, healthy rabbits
From the text: FIG. 12 is a graph of the mean plasma PAI-1 activity at baseline and after increasing doses of Ang II alone, Ang IV alone, saline, and Ang II in rabbits pretreated with amastatin. Error bars represent SEM.
(§2) We have also undertaken a series of experiments designed to identify the specific form of angiotensin that is responsible for the increased plasma PAI-1 levels seen in our human studies. We examined the effects of graded infusions of Ang II and Ang IV on blood pressure and plasma PAI activity in healthy New Zealand White rabbits.

[3] = Mean blood pressure during graded infusions in rabbits; format: in vivo, New Zealand White rabbits; conditions: for effect on mean blood pressure: graded infusions, healthy rabbits
From the text: FIG. 11 is a graph of the mean BP at baseline and after increasing doses of Ang II alone, Ang IV alone, saline, and Ang II in rabbits pretreated with amastatin. Error bars represent SEM.
as §2

t-PA [4] = test: Plasma t-PA during Ang II infusion in human volunteers; format: in vivo
Protocol: (§3) Second, this binding appears to have a functional effect on bovine aortic endothelial cells in inducing the synthesis of PAI-1 message and the secretion of PAI-1 into the conditioned media. Importantly, we have observed increased levels of PAI-1 mRNA induced by physiologically relevant doses of Ang II (i.e. 0.1 nM). The potential significance of these in vitro findings are supported by recent data obtained during the infusion of Ang II into healthy human volunteers. In these studies, normotensive volunteers (N=4) received an infusion of Ang II in graded doses of 1.0, 3.0. and 10.0 ng/kg/min., while 4 additional normotensive volunteers received an infusion of D5W. Plasma levels of t-PA and PAI-1 were measured prior to and at the conclusion of each dose. […] Similar findings have been obtained in an additional group of hypertensive volunteers (N=6) that received a constant infusion of Ang II (3 ng/kg/min) over a 45 min period. In these individuals, we observed a 60% increase in plasma PAI-1 compared with pretreatment levels (p<0.04).

PAI-1 [5] = test: PAI-1 secretion into conditioned media of bovine aortic endothelial cells (ELISA; activity); format: cell-based
Protocol: FIG. 6 is a dose response curve of PAI-1 secretion into the conditioned media of bovine aortic endothelial cells following exposure to Ang II.
In these experiments, we investigated the effects of Ang II on the secretion of PAI-1 into the media of cultured endothelial cells. […] Ang II (in the concentrations indicated) was added to washed, confluent cultures of bovine aortic endothelial cells, and the conditioned media was removed for assay after 18 hour. Levels of PAI-1 antigen in the media were determined using a specific ELISA for PAI-1, such as the assay described in DeClerk et al., Blood (1988) 71:220-225, or the assay sold by Biopool, AB, Umea, Sweden.
as §1

PAI-1 [6] = test: Plasma PAI-1 during Ang II infusion in human volunteers; format: in vivo
Protocol: as §3

t-PA [7] = test: t-PA antigen or activity in conditioned media of bovine aortic endothelial cells; format: cell-based
[8] = Ang II after pretreatment with amastatin

Compound: O[C@H](CS)[C@H](O)CS (relative stereo) [DTT]
reduction in total binding ([1]; 5 mM DTT, ^125 I-Ang II (0.27 nM)): 50%

Compound: CCCCc1nc(Cl)c(CO)n1Cc1ccc(-c2ccccc2-c2nn[nH]n2)cc1 [Dup 753]
effect on Ang II stimulation of PAI-1 mRNA levels (PAI-1 mRNA): does not appear to be prevented

Compound: CNCC(=O)N[C@@H](CCCN=C(N)N)C(=O)N[C@H](C(=O)N[C@@H](Cc1ccc(O)cc1)C(=O)N[C@H](C(=O)N[C@@H](Cc1cnc[nH]1)C(=O)N1CCC[C@H]1C(=O)N[C@@H](C)C(=O)O)C(C)C)C(C)C [saralasin, (Sar^1,Val^5,Ala^8)-angiotensin]
Ki (AT1 receptor): 0.4 nM | effect on Ang II stimulation of PAI-1 mRNA levels (PAI-1 mRNA): does not appear to be prevented

Compound: CC[C@H](C)[C@H](NC(=O)[C@H](Cc1ccc(O)cc1)NC(=O)[C@@H](N)C(C)C)C(=O)N[C@@H](Cc1cnc[nH]1)C(=O)N1CCC[C@H]1C(=O)N[C@@H](Cc1ccccc1)C(=O)O [Ang IV, VAL-TYR-ILE-HIS-PRO-PHE]
effect on plasma PAI-1 levels (PAI-1 [2]): dose-dependent increase in plasma PAI-1 levels | effect on mean blood pressure [3]: stable mean BP

Compound: ^125 I-Ang II: ^125 I labelled Ang II
character of binding to bovine aortic endothelial cells ([1]; FIG. 2): saturable and specific manner | Kd ([1]; Scatchard transformation of specific binding, room temperature, read-out: apparent Kd): ~2 nM | Bmax ([1]; Scatchard transformation, room temperature): 105 fmol/10^6 cells | time to binding equilibrium ([1]; room temperature): ≤ 45 min

EC50 (PAI-1 [5]; PAI-1 antigen in conditioned media, 18 hour): ~20 nM | increase in PAI-1 message (PAI-1 mRNA; 8 hour, serum-free media, normalized to β-actin): ~4 fold
Compound: CC[C@H](C)[C@H](NC(=O)[C@H](Cc1ccc(O)cc1)NC(=O)[C@@H](NC(=O)[C@H](CCCNC(=N)N)NC(=O)[C@@H](N)CC(=O)O)C(C)C)C(=O)N[C@@H](Cc1cnc[nH]1)C(=O)N1CCC[C@H]1C(=O)N[C@@H](Cc1ccccc1)C(=O)O [Ang II, angiotensin II]
effect on plasma PAI-1 levels (PAI-1 [2]): dose-dependent increase in plasma PAI-1 levels | plasma t-PA levels (t-PA [4]): plasma t-PA levels do not increase | effect on secretion of PAI-1 into media (PAI-1 [5]; 18 hour exposure, PAI-1 antigen ELISA): induce the secretion of PAI-1 in a dose-dependent manner | changes in PAI-1 activity (PAI-1 [5]; after reactivation of latent protein with guanidine hydrochloride): corresponding changes in PAI-1 activity | effect on PAI-1 secretion/response in normotensive volunteers (PAI-1 [6]; graded infusion 1.0, 3.0 and 10.0 ng/kg/min): increased in the subjects that received the Ang II infusions in a dose-dependent manner | increase in plasma PAI-1 compared with pretreatment (PAI-1 [6]; hypertensive volunteers (N=6), 3 ng/kg/min over 45 min, p<0.04): 60% | plasma PAI-1 level (PAI-1 [6]; normotensive volunteers (N=4), infusion graded 1.0, 3.0 and 10.0 ng/kg/min, from 14.7±5.3, mean±SEM, p<0.001 by ANOVA): 33.5±10.6 | effect on mean blood pressure [3]: dose-dependent increase in mean blood pressure | effect on t-PA antigen or activity in conditioned media (t-PA [7]): not observed a similar increase in t-PA antigen or activity | concentration at which increased levels of PAI-1 mRNA were observed (PAI-1 mRNA): 0.1 nM | time of peak PAI-1 mRNA after exposure (PAI-1 mRNA; 20 nM Ang II, serum-free DMEM): 6 to 8 h

Compound: CC(C)C[C@@H](N)[C@H](O)C(=O)N[C@H](C(=O)N[C@H](C(=O)N[C@@H](CC(=O)O)C(=O)O)C(C)C)C(C)C [amastatin]
PAI-1 response, Ang II after amastatin pretreatment (PAI-1 [2]; [8]): PAI-1 response was reduced considerably | effect on mean blood pressure, Ang II after amastatin pretreatment [3, 8]: expected increases in blood pressure
